What all share (assay type): in vivo
Common to all, as to settings: active ingredient amount 31 g/ha, 14th day after application

For test [1], the system named is crabgrass (Digitaris sanquinalis L.). As to the kind of experiment: Test Example 2: soil application on the day after sowing, growth inhibition rate on 14th day. In outline:
(§1)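 Pre-emergence soil spray, day after sowing; WP or EC formulations diluted to 1,000 L/ha water at set a.i. rates. Visual growth inhibition %, 0 = untreated, 100 = complete kill, read at day 14.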

In test [2] the test system is barnyardgrass (Echinochloa crus-qalli L.). Described as above. In outline: as §1
Test [3] concerns soybean (Glycine max Merr.). The test is described as above. In outline:
as §1

For test [4], the system named is redroot pigweed (Amaranthus retroflexus L.). The description is as above. In outline:
as §1

For test [5], the system named is wheat (Triticum aestivum L.). Described as above. In outline: as §1
Test [6] relates to prickly sida (Sida spinosa L.). The description is as above. In outline:
as §1

Test [7] deals with green foxtail (Setaria viridis L.). The test is described as above. In outline:
as §1

Test [8] concerns rice (Oryza sativa L.). Described as above. In outline: as §1
The test system of test [9] is velvetleaf (Abutilon theophrasti MEDIC.). The test is described as above. In outline:
as §1

The subject of test [10] is corn (Zea mays L.). The description is as above. In outline: as §1
Test [11] concerns italian ryegrass (Lolium multiflorum Lam.). Kind of test: Test Example 1: foliar treatment, growth inhibition rate on 14th day. In outline:
(§2)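 Visual 0–100% inhibition scoring (100 = complete kill) at 14 days after foliar treatment of soil-grown seedlings at species-specific leaf stages, with the compound sprayed as a wettable powder or emulsifiable concentrate dilution.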

The test system of test [12] is barnyardgrass (Echinochloa crus-qalli L.). The description is as above. In outline: as §2
For test [13], the system named is soybean (Glycine max Merr.). The test is described as above. In outline:
(§3)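 Growth inhibition rates (%) come from visual observation on the 14th day following a single foliar application. Soybean was sprayed at the primary leaf stage, rice at 0.2–2.7 leaves, wild oat at 0.4–1.2, green foxtail at 0.5–3.2.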

The subject of test [14] is redroot pigweed (Amaranthus retroflexus L.). Described as above. In outline:
as §2

The test system of test [15] is wheat (Triticum aestivum L.). The test is described as above. In outline:
as §2

In test [16] the test system is wild oat (Avena fatua L.). Described as above. In outline:
as §3

Test [17] deals with green foxtail (Setaria viridis L.). The description is as above. In outline: as §3
For test [18], the system named is rice (Oryza sativa L.). The test is described as above. In outline:
as §3

In test [19] the test system is corn (Zea mays L.). The description is as above. In outline:
as §2

Test [20] relates to crabgrass (Digitaria sanquinalis L.). Described as above. In outline: as §2
Where [21] appears, read: visual, 0 = non-treated, 100 = complete kill.

Turning to `CCc1ccc(Oc2nc3cc(Cl)ccc3o2)cc1-c1c(O)c(C)nn(C)c1=O` [Compound 2-161], the figures for the “Growth inhibition rate (%) Crabgrass” value in test [1] and in test [20] were 0% and 83%, respectively. Also, the “Growth inhibition rate (%) Barnyardgrass” value in test [2] is 98%; in [12], 100%. The “Growth inhibition rate (%) Soybean” value in test [3] and in test [13] was 0% each time. Besides, the “Growth inhibition rate (%) Redroot pigweed” value came to 0% in [4] and 40% in [14]. Besides, the “Growth inhibition rate (%) Wheat” value came out at 0% in test [5] and 85% in [15]. Moreover, the “Growth inhibition rate (%) Prickly sida” value in test [6] was found to be 0%. The results for the “Growth inhibition rate (%) Green foxtail” value in test [7] and in test [17] were 0% and 100%, respectively. For the same compound, the “Growth inhibition rate (%) Rice” value came to 0% in the test with rice (Oryza sativa L.) [8] and 99% in the test on rice (Oryza sativa L.) [18]. Also, in test [9], the “Growth inhibition rate (%) Velvetleaf” value is 0%. Further, the “Growth inhibition rate (%) Corn” value was 0% with corn (Zea mays L.) [10] and 90% in the test on corn (Zea mays L.) [19]. For the same compound, the “Growth inhibition rate (%) Italian ryegrass” value in [11] is 99%. Besides, the “Growth inhibition rate (%) Wild oat” value in [16] is on record as 99%.
`CSCCC(=O)Oc1c(C)nn(C)c(=O)c1-c1cc(Oc2cnc3cc(Cl)ccc3n2)ccc1C` [Compound 3-50]: the “Growth inhibition rate (%) Crabgrass” value is on record as 80% in test [1] and 98% in test [20] (setting [21]). In addition, the “Growth inhibition rate (%) Barnyardgrass” value in test [2] came out at 99%; in [12] (setting [21]) it was 100%. For the same compound, the “Growth inhibition rate (%) Soybean” value in test [3] is 0%; in test [13] (setting [21]), 10%. The “Growth inhibition rate (%) Redroot pigweed” value in test [4] and in [14] (setting [21]) was 0% throughout. In addition, the “Growth inhibition rate (%) Wheat” value in test [5] was 0%; in test [15] (setting [21]) it was 99%. Besides, the “Growth inhibition rate (%) Prickly sida” value in test [6] is recorded as 0%. Further, the “Growth inhibition rate (%) Green foxtail” value in test [7] turned out to be 98%; in test [17] (setting [21]) it was 100%. Besides, the results for the “Growth inhibition rate (%) Rice” value with rice (Oryza sativa L.) [8] and in the test on rice (Oryza sativa L.) [18] (setting [21]) were 0% and 60%, respectively. In addition, the “Growth inhibition rate (%) Velvetleaf” value in test [9] is on record as 0%. Moreover, the “Growth inhibition rate (%) Corn” value in the test with corn (Zea mays L.) [10] turned out to be 0%; in the test with corn (Zea mays L.) [19] (setting [21]) it was 15%. Besides, the “Growth inhibition rate (%) Italian ryegrass” value in test [11] (setting [21]) came to 93%. Further, the “Growth inhibition rate (%) Wild oat” value in [16] (setting [21]) is recorded as 98%.
Consider `CCc1ccc(Oc2ncc(C(F)(F)F)cc2Cl)cc1-c1c(O)c(C)nn(C)c1=O` [1-3], for which the “Growth inhibition rate (%) Crabgrass” value was 100% in test [1] and 99% in [20]. Also, the “Growth inhibition rate (%) Barnyardgrass” value in test [2] and in [12] was 100% in each case. For the same compound, the entries for the “Growth inhibition rate (%) Soybean” value in test [3] and in test [13] were 0% and 15%, respectively. The “Growth inhibition rate (%) Redroot pigweed” value in test [4] and in test [14] was 0% throughout. The “Growth inhibition rate (%) Wheat” value in test [5] is recorded as 35%; in [15] it was 15%. In addition, the “Growth inhibition rate (%) Prickly sida” value in [6] was found to be 0%. Besides, the “Growth inhibition rate (%) Green foxtail” value in test [7] and in test [17] was 100% in each case. For the same compound, the “Growth inhibition rate (%) Rice” value with rice (Oryza sativa L.) [8] is 80%; in the test on rice (Oryza sativa L.) [18], 75%. Moreover, in test [9], the “Growth inhibition rate (%) Velvetleaf” value is listed as 0%. Also, the “Growth inhibition rate (%) Corn” value in the test on corn (Zea mays L.) [10] worked out at 90%; in the test on corn (Zea mays L.) [19], 99%. Further, in [11], the “Growth inhibition rate (%) Italian ryegrass” value worked out at 98%. Moreover, the “Growth inhibition rate (%) Wild oat” value in test [16] is 98%.
Turning to `Cc1ccc(Oc2ncc(C(F)(F)F)cc2Cl)cc1-c1c(OC(=O)OC(C)(C)C)c(C)nn(C)c1=O` [1-59], the “Growth inhibition rate (%) Crabgrass” value in test [1] and in [20] was 100% throughout. In addition, the “Growth inhibition rate (%) Barnyardgrass” value in test [2] and in test [12] was 100% throughout. In addition, the “Growth inhibition rate (%) Soybean” value in test [3] and in [13] was 0% throughout. The “Growth inhibition rate (%) Redroot pigweed” value in [4] and in test [14] was 0% each time. The “Growth inhibition rate (%) Wheat” value in [5] turned out to be 0%; in [15], 93%. For the same compound, the “Growth inhibition rate (%) Prickly sida” value in [6] is 0%. Besides, the “Growth inhibition rate (%) Green foxtail” value in test [7] was 99%; in test [17], 100%. The “Growth inhibition rate (%) Rice” value in the test with rice (Oryza sativa L.) [8] was determined as 20%; with rice (Oryza sativa L.) [18], 40%. Further, in test [9], the “Growth inhibition rate (%) Velvetleaf” value amounted to 0%. Besides, the “Growth inhibition rate (%) Corn” value was determined as 0% in the test on corn (Zea mays L.) [10] and 98% in the test with corn (Zea mays L.) [19]. Moreover, the “Growth inhibition rate (%) Italian ryegrass” value in test [11] turned out to be 98%. In [16], the “Growth inhibition rate (%) Wild oat” value is given as 99%.
As for `CC(=O)Oc1c(C)nn(C)c(=O)c1-c1cc(Oc2nc3ccc(C(F)(F)F)nc3o2)ccc1C` [Compound 2-121], the “Growth inhibition rate (%) Crabgrass” value in [1] and in test [20] was 98% each time. In addition, the “Growth inhibition rate (%) Barnyardgrass” value in [2] and in test [12] was 100% each time. Also, the “Growth inhibition rate (%) Soybean” value in [3] and in test [13] was 0% each time. The “Growth inhibition rate (%) Redroot pigweed” value in test [4] stood at 0%; in test [14], 20%. Moreover, the “Growth inhibition rate (%) Wheat” value is on record as 0% in [5] and 78% in [15]. For the same compound, in test [6], the “Growth inhibition rate (%) Prickly sida” value is listed as 0%. In addition, the “Growth inhibition rate (%) Green foxtail” value in [7] and in test [17] was 100% each time. The “Growth inhibition rate (%) Rice” value in the test on rice (Oryza sativa L.) [8] is on record as 0%; in the test with rice (Oryza sativa L.) [18], 90%. In test [9], the “Growth inhibition rate (%) Velvetleaf” value stood at 0%. In addition, the “Growth inhibition rate (%) Corn” value in the test with corn (Zea mays L.) [10] and with corn (Zea mays L.) [19] was 20% each time. In addition, the “Growth inhibition rate (%) Italian ryegrass” value in test [11] amounted to 98%. The “Growth inhibition rate (%) Wild oat” value in test [16] is reported as 98%.
In the case of `CCn1nc(C)c(O)c(-c2cc(Oc3ncc(C(F)(F)F)cc3Cl)ccc2C)c1=O` [1-65], the “Growth inhibition rate (%) Crabgrass” value in test [1] and in test [20] was 100% each time. Moreover, the “Growth inhibition rate (%) Barnyardgrass” value in [2] was determined as 100%; in test [12] it was 99%. Also, the “Growth inhibition rate (%) Soybean” value in test [3] and in test [13] was 0% each time. Further, the “Growth inhibition rate (%) Redroot pigweed” value in test [4] and in [14] was 0% in each case. Moreover, the “Growth inhibition rate (%) Wheat” value in test [5] is on record as 0%; in test [15] it was 10%. The “Growth inhibition rate (%) Prickly sida” value in [6] came out at 0%. For the same compound, the “Growth inhibition rate (%) Green foxtail” value in test [7] is recorded as 99%; in test [17] it was 100%. Besides, the “Growth inhibition rate (%) Rice” value stood at 20% in the test on rice (Oryza sativa L.) [8] and 60% in the test on rice (Oryza sativa L.) [18]. For the same compound, the “Growth inhibition rate (%) Velvetleaf” value in [9] worked out at 0%. In addition, the “Growth inhibition rate (%) Corn” value in the test with corn (Zea mays L.) [10] was found to be 0%; with corn (Zea mays L.) [19] it was 98%. Further, in test [11], the “Growth inhibition rate (%) Italian ryegrass” value was determined as 98%. The “Growth inhibition rate (%) Wild oat” value in [16] is listed as 98%.
`C#CCOC(=O)Oc1c(C)nn(C)c(=O)c1-c1cc(Oc2cnc3cc(Cl)ccc3n2)ccc1C` [Compound 3-64]: the “Growth inhibition rate (%) Crabgrass” value in test [1] amounted to 50%; in [20] (setting [21]), 90%. Besides, the “Growth inhibition rate (%) Barnyardgrass” value in [2] and in test [12] (setting [21]) was 98% each time. In addition, the “Growth inhibition rate (%) Soybean” value in test [3] and in test [13] (setting [21]) was 0% each time. The “Growth inhibition rate (%) Redroot pigweed” value in test [4] and in [14] (setting [21]) was 0% throughout. Besides, the entries for the “Growth inhibition rate (%) Wheat” value in [5] and in test [15] (setting [21]) were 0% and 60%, respectively. In addition, in test [6], the “Growth inhibition rate (%) Prickly sida” value was 0%. The “Growth inhibition rate (%) Green foxtail” value in test [7] amounted to 93%; in test [17] (setting [21]), 100%. For the same compound, the “Growth inhibition rate (%) Rice” value in the test on rice (Oryza sativa L.) [8] and in the test on rice (Oryza sativa L.) [18] (setting [21]) was 0% throughout. Also, in test [9], the “Growth inhibition rate (%) Velvetleaf” value was 0%. The “Growth inhibition rate (%) Corn” value with corn (Zea mays L.) [10] is listed as 0%; in the test on corn (Zea mays L.) [19] (setting [21]), 50%. In addition, the “Growth inhibition rate (%) Italian ryegrass” value in [11] (setting [21]) is 85%. For the same compound, in [16] (setting [21]), the “Growth inhibition rate (%) Wild oat” value came out at 83%.
